Test results published in ChEMBL document CHEMBL5291721, “A preclinical secondary pharmacology resource illuminates target-adverse drug reaction associations of marketed drugs” (Nat Commun, 2023).

What was measured:
[1] = target: Prothrombin (Homo sapiens, UniProt P00734); assay type: functional
[2] = target: Histamine H3 receptor (Homo sapiens, UniProt Q9Y5N1)
[3] = target: T1, 5-hydroxytryptamine receptor 1A (Homo sapiens, UniProt P08908)
T1 sequence (P08908 whole entry): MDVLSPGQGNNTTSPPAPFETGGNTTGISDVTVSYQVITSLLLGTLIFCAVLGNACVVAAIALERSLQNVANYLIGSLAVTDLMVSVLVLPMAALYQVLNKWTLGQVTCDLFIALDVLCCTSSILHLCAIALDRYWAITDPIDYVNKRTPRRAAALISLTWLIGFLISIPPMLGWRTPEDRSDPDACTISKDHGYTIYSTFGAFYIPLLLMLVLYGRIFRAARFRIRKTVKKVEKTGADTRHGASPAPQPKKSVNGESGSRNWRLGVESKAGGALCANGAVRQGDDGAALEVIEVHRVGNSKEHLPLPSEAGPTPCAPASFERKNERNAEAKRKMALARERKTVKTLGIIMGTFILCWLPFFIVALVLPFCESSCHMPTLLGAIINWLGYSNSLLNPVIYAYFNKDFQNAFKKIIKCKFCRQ

[4] = target: T2, Progesterone receptor (Homo sapiens, UniProt P06401)
T2 sequence (P06401 whole entry): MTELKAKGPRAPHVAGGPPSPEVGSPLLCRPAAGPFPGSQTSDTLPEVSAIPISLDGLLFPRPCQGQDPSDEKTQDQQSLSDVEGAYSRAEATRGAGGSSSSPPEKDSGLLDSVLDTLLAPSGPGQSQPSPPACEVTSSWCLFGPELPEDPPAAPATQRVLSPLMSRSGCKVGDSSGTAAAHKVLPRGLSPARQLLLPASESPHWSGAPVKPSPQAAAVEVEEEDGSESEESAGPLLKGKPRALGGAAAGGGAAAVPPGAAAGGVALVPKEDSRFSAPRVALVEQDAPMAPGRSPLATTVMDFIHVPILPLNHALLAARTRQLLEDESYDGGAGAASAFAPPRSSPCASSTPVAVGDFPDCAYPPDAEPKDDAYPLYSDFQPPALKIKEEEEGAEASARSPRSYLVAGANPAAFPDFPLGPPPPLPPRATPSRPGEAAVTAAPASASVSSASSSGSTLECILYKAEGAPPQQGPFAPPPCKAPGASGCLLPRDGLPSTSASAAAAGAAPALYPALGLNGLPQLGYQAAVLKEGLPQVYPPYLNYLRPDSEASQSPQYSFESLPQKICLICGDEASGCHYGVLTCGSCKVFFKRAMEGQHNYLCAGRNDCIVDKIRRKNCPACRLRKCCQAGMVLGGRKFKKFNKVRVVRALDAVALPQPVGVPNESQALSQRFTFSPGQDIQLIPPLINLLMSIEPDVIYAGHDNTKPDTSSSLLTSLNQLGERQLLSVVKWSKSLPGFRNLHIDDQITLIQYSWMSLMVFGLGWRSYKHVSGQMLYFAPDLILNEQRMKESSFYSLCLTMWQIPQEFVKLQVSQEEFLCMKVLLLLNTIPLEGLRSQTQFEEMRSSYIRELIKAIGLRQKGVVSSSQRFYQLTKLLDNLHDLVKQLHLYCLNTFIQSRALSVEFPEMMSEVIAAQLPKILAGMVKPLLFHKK

[5] = target: T3, Thromboxane A2 receptor (Homo sapiens, UniProt P21731); assay type: functional, cell-based
T3 sequence (P21731 whole entry): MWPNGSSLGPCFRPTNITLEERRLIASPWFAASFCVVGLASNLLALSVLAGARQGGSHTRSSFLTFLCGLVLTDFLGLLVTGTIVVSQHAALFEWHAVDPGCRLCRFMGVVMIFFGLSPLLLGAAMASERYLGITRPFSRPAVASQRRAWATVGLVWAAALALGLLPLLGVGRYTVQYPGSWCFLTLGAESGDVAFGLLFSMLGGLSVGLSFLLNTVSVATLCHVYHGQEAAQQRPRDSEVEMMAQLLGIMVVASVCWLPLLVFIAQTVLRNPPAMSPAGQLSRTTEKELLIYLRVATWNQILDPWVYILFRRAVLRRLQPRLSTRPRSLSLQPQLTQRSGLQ

[6] = target: T3, Thromboxane A2 receptor; assay type: functional, cell-based; remark: listed apart in the source
[7] = target: T4, Muscarinic acetylcholine receptor M4 (Homo sapiens, UniProt P08173)
T4 sequence (P08173 whole entry): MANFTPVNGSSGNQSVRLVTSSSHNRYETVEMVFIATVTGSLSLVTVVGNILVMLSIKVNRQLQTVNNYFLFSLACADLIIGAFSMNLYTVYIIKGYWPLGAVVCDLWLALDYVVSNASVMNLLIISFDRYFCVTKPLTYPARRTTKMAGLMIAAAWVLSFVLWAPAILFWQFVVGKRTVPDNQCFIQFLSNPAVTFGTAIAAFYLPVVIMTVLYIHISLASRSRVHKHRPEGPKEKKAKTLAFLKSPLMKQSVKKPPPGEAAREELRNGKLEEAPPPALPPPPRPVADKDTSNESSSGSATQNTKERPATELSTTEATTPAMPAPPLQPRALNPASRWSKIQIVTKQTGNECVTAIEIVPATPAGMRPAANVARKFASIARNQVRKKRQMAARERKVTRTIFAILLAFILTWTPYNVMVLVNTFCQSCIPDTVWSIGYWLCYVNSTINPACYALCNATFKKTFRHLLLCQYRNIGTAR

[8] = target: T5, Muscarinic acetylcholine receptor M5 (Homo sapiens, UniProt P08912)
T5 sequence (P08912 whole entry): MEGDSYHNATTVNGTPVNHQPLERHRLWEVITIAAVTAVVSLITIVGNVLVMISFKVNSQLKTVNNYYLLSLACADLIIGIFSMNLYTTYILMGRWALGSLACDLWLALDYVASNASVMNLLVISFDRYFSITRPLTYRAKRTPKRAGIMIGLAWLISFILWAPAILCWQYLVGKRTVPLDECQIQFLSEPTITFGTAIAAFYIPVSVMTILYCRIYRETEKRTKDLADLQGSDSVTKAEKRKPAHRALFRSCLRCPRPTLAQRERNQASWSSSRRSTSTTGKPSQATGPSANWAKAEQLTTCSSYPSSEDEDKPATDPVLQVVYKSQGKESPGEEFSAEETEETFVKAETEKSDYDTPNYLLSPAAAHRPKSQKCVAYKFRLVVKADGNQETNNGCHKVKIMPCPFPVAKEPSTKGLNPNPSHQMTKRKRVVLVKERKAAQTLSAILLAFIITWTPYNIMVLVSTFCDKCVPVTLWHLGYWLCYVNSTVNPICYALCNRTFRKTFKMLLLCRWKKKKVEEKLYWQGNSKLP

[9] = target: D(1B) dopamine receptor (Homo sapiens, UniProt P21918)
Further: assay procedure not described here.

Histamine H3 receptor, sequence (Q9Y5N1 whole entry): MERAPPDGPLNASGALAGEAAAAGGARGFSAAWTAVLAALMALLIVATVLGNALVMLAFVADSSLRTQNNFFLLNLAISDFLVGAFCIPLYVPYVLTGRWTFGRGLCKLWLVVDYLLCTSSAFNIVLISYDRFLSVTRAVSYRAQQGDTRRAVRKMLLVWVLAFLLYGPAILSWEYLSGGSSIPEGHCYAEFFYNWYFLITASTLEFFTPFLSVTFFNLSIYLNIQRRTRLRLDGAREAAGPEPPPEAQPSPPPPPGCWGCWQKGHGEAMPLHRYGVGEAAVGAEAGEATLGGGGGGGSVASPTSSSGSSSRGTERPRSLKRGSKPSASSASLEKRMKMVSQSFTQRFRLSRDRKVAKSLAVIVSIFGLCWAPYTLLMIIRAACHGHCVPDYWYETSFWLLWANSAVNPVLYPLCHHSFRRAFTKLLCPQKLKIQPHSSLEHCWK
D(1B) dopamine receptor, sequence (P21918 whole entry): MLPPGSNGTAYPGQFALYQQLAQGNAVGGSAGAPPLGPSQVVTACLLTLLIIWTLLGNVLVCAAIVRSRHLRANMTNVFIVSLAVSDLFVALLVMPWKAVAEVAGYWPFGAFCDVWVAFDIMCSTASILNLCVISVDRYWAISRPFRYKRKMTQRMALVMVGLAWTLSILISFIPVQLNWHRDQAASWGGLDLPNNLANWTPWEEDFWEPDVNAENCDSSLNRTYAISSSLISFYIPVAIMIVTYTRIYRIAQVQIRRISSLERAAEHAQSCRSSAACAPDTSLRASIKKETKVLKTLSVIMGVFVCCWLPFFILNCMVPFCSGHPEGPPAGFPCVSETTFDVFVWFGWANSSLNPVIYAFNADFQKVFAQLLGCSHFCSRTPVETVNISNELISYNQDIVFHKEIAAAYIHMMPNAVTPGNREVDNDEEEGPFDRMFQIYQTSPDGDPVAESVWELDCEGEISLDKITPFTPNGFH

For `NCCCC(O)(P(=O)(O)O)P(=O)(O)O` [ALENDRONIC ACID], the AC50 [1] was greater than 30 µM, the AC50 [2] was greater than 30 µM and the AC50 [3] was greater than 30 µM. For the same compound, the AC50 [4] was greater than 30 µM, the AC50 [5] was greater than 30 µM and the AC50 [6] was greater than 30 µM.

For `COC1=C(OC)C(=O)C(CCCCCCCCCCO)=C(C)C1=O` [IDEBENONE], the AC50 [7] was greater than 10 µM, the AC50 [8] was greater than 10 µM and the AC50 [9] was greater than 10 µM.

Compound `O=C1CN=C(c2ccccc2)c2cc(Cl)ccc2N1` [NORDAZEPAM] has an AC50 [7] greater than 10 µM, an AC50 [8] greater than 10 µM and an AC50 [9] greater than 10 µM.

Work on `CC(CCc1ccccc1)NC(C)C(O)c1ccc(O)cc1` (stereo not drawn) [NYLIDRIN] yielded an AC50 [7] greater than 10 µM, an AC50 [8] greater than 10 µM and an AC50 [9] greater than 10 µM.

`O=C1Nc2ccc(Cl)cc2C(c2ccccc2)=NC1O` (stereo not drawn) [OXAZEPAM] showed an AC50 [7] greater than 10 µM, an AC50 [8] greater than 10 µM and an AC50 [9] greater than 10 µM.

For `C[n+]1ccccc1/C=N/O` [PRALIDOXIME], the AC50 [1] was greater than 30 µM, the AC50 [2] was greater than 30 µM and the AC50 [3] was greater than 30 µM. For the same compound, the AC50 [4] was greater than 30 µM, the AC50 [5] was greater than 30 µM and the AC50 [6] was greater than 30 µM.

`N#C[C@@H]1CCCN1C(=O)CNC12CC3CC(CC(O)(C3)C1)C2` [VILDAGLIPTIN] showed an AC50 [7] greater than 10 µM, an AC50 [8] greater than 10 µM and an AC50 [9] greater than 10 µM.

COLISTIN gave an AC50 [1] greater than 30 µM, an AC50 [2] greater than 30 µM and an AC50 [3] greater than 30 µM. It also gave an AC50 [4] greater than 30 µM, an AC50 [5] greater than 30 µM and an AC50 [6] greater than 30 µM.
